One experiment concerns the target Tlp3^LBD W151A (Campylobacter jejuni, UniProt Q0P864, W151A). Put plainly: biochemical.
The target in experiment [1] is T1, Tlp3 (Campylobacter jejuni, UniProt Q0P864). Kind of experiment: Glycan/small molecule arrays with Tlp3. The note with it: yes/no binding. In a few lines: (§1)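 His-tagged periplasmic domains, 1 µg, precomplexed with anti-His plus Alexa555 secondary/tertiary antibodies, incubated on glycan and amino acid/salt arrays in PBS. Binding scored yes/no against background + 3× SD threshold, from replicate spots over three experiments.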
T1 sequence (Q0P864 entry or part of it): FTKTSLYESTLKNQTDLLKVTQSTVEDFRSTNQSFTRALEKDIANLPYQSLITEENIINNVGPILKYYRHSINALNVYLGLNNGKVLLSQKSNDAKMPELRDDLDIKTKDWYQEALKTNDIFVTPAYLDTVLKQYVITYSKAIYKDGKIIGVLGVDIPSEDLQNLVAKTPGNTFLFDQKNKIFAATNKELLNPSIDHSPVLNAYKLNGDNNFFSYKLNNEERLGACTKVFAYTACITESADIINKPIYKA

Another experiment concerns the target Tlp3^LBD D170A (Campylobacter jejuni, UniProt Q0P864). Put plainly: biochemical.
The next experiment deals with Tlp3^LBD K149A (Campylobacter jejuni, UniProt Q0P864, K149A). Put plainly: biochemical.
Sequence of Tlp3^LBD K149A (Q0P864 41-290 K149A): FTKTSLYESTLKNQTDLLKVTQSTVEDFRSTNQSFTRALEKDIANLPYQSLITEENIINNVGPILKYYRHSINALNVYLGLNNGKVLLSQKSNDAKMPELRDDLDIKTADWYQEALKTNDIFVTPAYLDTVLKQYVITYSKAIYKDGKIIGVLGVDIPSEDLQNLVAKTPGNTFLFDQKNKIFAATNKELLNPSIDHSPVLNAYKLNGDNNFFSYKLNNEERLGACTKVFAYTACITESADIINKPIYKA
The target of another experiment is Tlp3^LBD D169A (Campylobacter jejuni, UniProt Q0P864, D169A). Kind of experiment: biochemical.
Sequence of Tlp3^LBD D169A (Q0P864 41-290 D169A): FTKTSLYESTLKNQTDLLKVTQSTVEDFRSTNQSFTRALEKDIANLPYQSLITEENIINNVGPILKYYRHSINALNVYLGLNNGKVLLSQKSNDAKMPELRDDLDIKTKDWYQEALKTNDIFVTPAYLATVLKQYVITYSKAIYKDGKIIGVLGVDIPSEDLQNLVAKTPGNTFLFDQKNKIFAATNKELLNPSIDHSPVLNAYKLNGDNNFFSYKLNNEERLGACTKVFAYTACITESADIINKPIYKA
The target in a further experiment is Tlp2 (Campylobacter jejuni, UniProt Q0PBZ3). The format is binding. The conditions noted are these: yes/no binding. In a few lines:
as §1

For another experiment, the target named is Tlp4 (Campylobacter jejuni, UniProt Q0PBP3). The format is binding. The note with it: yes/no binding. The essentials:
as §1

Experiment [2] has as its target T1, Tlp3. Kind of experiment: biochemical. The format is binding. In a few lines:
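SPR in single-cycle kinetics mode at 25°C, PBS pH 7.2, 30 μL/min, against immobilized His-tagged recombinant periplasmic sensory domain expressed in E. coli. Ligands serially diluted 0.2 to 0.0125 mM, 10-min dissociation. KD from equilibrium fit using a report point 4 s after injection stop.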

Sequence of Tlp3^LBD W151A (Q0P864 41-290 W151A): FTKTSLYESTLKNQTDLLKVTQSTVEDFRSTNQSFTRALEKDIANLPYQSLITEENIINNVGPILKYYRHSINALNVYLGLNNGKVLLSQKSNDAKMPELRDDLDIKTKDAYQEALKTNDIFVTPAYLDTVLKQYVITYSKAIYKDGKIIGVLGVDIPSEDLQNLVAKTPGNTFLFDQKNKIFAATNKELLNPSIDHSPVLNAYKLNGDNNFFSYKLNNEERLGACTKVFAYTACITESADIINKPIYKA
Sequence of Tlp3^LBD D170A (Q0P864 41-290 T170A): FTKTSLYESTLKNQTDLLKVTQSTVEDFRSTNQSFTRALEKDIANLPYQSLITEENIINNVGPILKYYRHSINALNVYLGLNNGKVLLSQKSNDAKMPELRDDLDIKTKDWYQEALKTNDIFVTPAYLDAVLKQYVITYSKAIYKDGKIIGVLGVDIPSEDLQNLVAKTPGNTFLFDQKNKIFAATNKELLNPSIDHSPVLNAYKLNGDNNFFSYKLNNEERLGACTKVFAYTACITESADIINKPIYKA
Sequence of Tlp4 (Q0PBP3 entry or part of it): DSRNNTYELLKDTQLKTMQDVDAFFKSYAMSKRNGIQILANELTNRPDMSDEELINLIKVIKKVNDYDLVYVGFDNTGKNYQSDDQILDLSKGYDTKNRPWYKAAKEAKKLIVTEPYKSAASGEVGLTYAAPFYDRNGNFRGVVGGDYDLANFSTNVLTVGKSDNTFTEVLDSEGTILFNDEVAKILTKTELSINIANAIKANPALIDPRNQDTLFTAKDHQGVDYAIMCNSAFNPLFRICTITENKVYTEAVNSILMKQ
Sequence of Tlp2 (Q0PBZ3 entry or part of it): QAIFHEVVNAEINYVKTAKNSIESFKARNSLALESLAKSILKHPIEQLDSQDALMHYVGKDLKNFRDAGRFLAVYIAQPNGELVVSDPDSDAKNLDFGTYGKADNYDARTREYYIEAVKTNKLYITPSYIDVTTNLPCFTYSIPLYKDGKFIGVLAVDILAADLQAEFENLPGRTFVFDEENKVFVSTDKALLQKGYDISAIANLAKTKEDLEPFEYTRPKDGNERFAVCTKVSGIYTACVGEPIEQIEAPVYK

In the case of `C[C@H](O)[C@@H](O)[C@@H](O)[C@H](O)C=O` [Fucose], the Kd stood at 66.9 ± 14.6 µM on Tlp3^LBD W151A; 46.6 ± 16.1 µM at Tlp3^LBD D170A; 63.7 ± 16.8 µM at Tlp3^LBD K149A; 50 ± 17.6 µM on Tlp3^LBD D169A; 25.2 ± 6.5 µM at Tlp3 [2]. In addition, the “binding to Tlp3 on glycan/small molecule array” value at Tlp3 [1] is recorded as “interacted”. For the same molecule, on Tlp2, the “binding to Tlp2 on glycan/small molecule array” value is “interacted”. In addition, at Tlp4, the “binding to Tlp4 on glycan/small molecule array” value is listed as “interacted”.

Consider `NCCCC[C@H](N)C(=O)O` [Lysine], for which the Kd was 27.3 ± 5.9 µM on Tlp3^LBD W151A; 14.5 ± 4.8 µM at Tlp3^LBD D170A; 32.3 ± 5.3 µM at Tlp3^LBD K149A; 29.2 ± 4.9 µM at Tlp3^LBD D169A; 4.3 ± 1.6 µM on Tlp3 [2]. Moreover, the “binding to Tlp3 on glycan/small molecule array” value at Tlp3 [1] is recorded as “bind specifically”. In addition, the “binding to Tlp2 on glycan/small molecule array” value at Tlp2 was “bound”. For the same molecule, on Tlp4, the “binding to Tlp4 on glycan/small molecule array” value is listed as “bound”.

For `CC(=O)N[C@H]1[C@H]([C@H](O)[C@H](O)CO)OC(O)(C(=O)O)C[C@@H]1O` (stereo partly drawn) [Sialic acid], the Kd at Tlp3^LBD W151A was 17.3 ± 4.4 µM; at Tlp3^LBD D170A, 16.6 ± 2 µM; on Tlp3^LBD K149A, 24 ± 6.6 µM; at Tlp3^LBD D169A, 25.2 ± 8.5 µM; at Tlp3 [2], 9 ± 0.2 µM. The “binding to Tlp3 on glycan/small molecule array” value at Tlp3 [1] is listed as “interacted”. Also, the “binding to Tlp2 on glycan/small molecule array” value on Tlp2 is “interacted”. For the same molecule, the “binding to Tlp4 on glycan/small molecule array” value at Tlp4 is given as “interacted”.
